Holding throughout (assay type): biochemical
For assay [1], the target named is T1, porcine pancreatic PLA2 (Sus scrofa, UniProt P00592).
T1 construct: purchased Sigma
As to the kind of experiment: MPLA2 assay: in vitro porcine pancreatic phospholipase A2, mixed micelle design, substrate 2 nM. The following applies: for inhibition at 25 µg/mL / % Inh.: dose 25 μ/ml; for inhibition at 10 µg/mL: dose 10 μ/ml; for inhibition at 20 µg/mL: dose 20 μ/ml; for IC50 / % Inh.: subs. con. 2. The protocol: (§1) Phospholipase A2 activity was measured by a radiochemical assay in which labeled synthetic phosphatidylcholine substrate is converted by porcine pancreatic PLA2 to free radiolabeled arachidonate and lyso PC. Radiolabeled arachidonate is extracted from the reaction mixture and separated from unreacted substrate by column chromatography or TLC. Radioactivity (cpm) in samples is quantitated by liquid scintillation counting. Specific details are as follows:
(§2) Labeled substrate(1-stearyl-2-^3 H-arachidonylphosphatidylcholine; Amersham, sp. act. 84 (uCi/mmole, 0.025 to 0.2 uCi/assay tube and unlabeled substrates (Avanti), in sufficient quantity to give 20,000 cpm to 50,000 cpm and 10 μM to 1,000 μM final concentration/assay tube are dried under a stream of nitrogen. The PLA2 and mPLA2 assays utilized a […] substrate concentration. The mHPLA2 and HPLA2 assays (vida infra) utilized a 10 μM substrate concentration and the SmPLA2 assay utilized a substrate concentration ranging from 100 to 1000 μm. The substrate is then redissolved in 0.1M tris-HCl buffer, pH 9.0 containing 10 mM CaCl2 and 10 mM Na taurocholate detergent. The mixture is sonicated in a Kontes Sonifier to yield a homogeneous dispersion. The "mixed" micellar substrate is clear. An aliquot is reserved for a cpm count (total substrate). The total reaction volume is 500 μL; siliconized glassware or plasticware is used throughout. Enzyme (Sigma, sp. act.>690 U/mg protein and preferably 900 U/mg protein) is diluted 1:750 or 1:1000 in 0.1M tris-HCl buffer, pH 9.0 (without Ca^++ and detergent). Enzyme dilution depends on substrate concentration and required enzyme concentration.
(§3) The substrate in buffer is kept on ice until the reaction is started. The reaction is started by adding 10 μL of diluted enzyme solution to 490 μL of micellar substrate solution. Samples are incubated in a 37° C. water bath for 15 minutes with gentle mixing. The reaction is terminated by the addition of 100 μL of 1M fresh trichloroacetic acid (TCA) solution and chilling the tubes on ice for 30 minutes.
(§4) Samples (600 μL) are extracted with 3 ml CHCl3 /MeOH (2:1) for thin layer chromatography or in hexane/ether (9:1) for column chromatography. The phases are separated by gentle centrifugation at 700 rpm×5'. The organic phase is recovered.
(§5) Labeled arachidonate extracted with CHCl3 /MeOH is separated on silica gel G TLC plates (Analtech). Twenty μL of a 2 mg/ml internal standard solution of arachidonic acid (Sigma) is combined with 2-3 ml of the organic phase. The entire mixture is dried under nitrogen and redissolved in 50 μL of CHCl3 /MeOH (2:1). A 20 μL sample is counted in 10 ml of Beckman Redi-solv HP and spotted on silica gel G plates. The solvent system used to develop the plate is CHCl3 /MeOH/13.5N NH3 /H2 O (70:30:4:1). Plates are developed in a glass chamber for 1-11/2 hours, air dried, and the spots visualized in an iodine vapor chamber. Standards of phosphatidylcholine, lyso PC, and arachidonic acid (Sigma) are made as 2 mg/ml stocks in CHCl3 /MeOH (2:1) and spotted on plates. Spots corresponding to arachidonate and phospholipid are scraped and counted in 10 ml Beckman Redi-Solv HP scintillation fluid.
(§6) Samples are extracted with hexane/ether and the upper organic phase recovered. An aliquot is applied to a Silicar CC4 (Malincrodt) column. Columns are prepared using 1 ml of a 1:1 slurry of silicar CC4 in hexane/ether in a Pasteur pipet (approx. 2 cm height). Columns are rinsed with 500 μL of hexane/ether before adding the sample (300-600 μL) to the column. Columns are eluted with a total of 6 ml of hexane/ether. The 6 ml sample is counted in 10 ml of Beckman Redi-Solv HP scintillation fluid.
(§7) or the phospholipase A2 assay, compounds are prepared as 1 mg/ml stock solutions in MeOH and diluted appropriately in PBS. […]

The target of assay [2] is T1, porcine pancreatic PLA2. Description: PLA2 assay: in vitro porcine pancreatic phospholipase A2, preincubation of drug+enzyme, substrate 2 nM. Particulars: preincubation, subs. con. 2; for IC50: read-out: IC50 (converted). The protocol: as §1, §2, §3, §4, §5, §6
or the phospholipase A2 assay, compounds are prepared as 1 mg/ml stock solutions in MeOH and diluted appropriately in PBS.

Assay [3] deals with T1, porcine pancreatic PLA2. Description: MHPLA2 assay: in vitro porcine pancreatic phospholipase A2, mixed micelle design, [s]=10 μm. Particulars: for inhibition at 25 µg/mL: dose 25 μ/ml; for inhibition at 10 µg/mL: dose 10 μ/ml. The protocol:
as §1, §2, §3, §4, §5, §6, §7

The mark [4] stands for this setting: dose 10 μ/ml, read-out: % Inh. Avg.
Setting [5] is: subs. con. 10, read-out: % Inh.
Where [6] appears, read: subs. con. 10, read-out: % Inh. Avg.

This note sets out measurements from patent US5208223A, “Phosphocholine derivative inhibitors of phospholipase A2” (American Cyanamid Company, priority 1992, dated 1993).

Structures can show the parent of a compound that is named as a salt.

T1 sequence (P00592 23-146): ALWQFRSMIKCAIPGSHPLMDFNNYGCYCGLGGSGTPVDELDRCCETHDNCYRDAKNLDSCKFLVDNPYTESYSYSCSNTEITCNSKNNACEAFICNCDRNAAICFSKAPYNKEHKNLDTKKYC

For orientation: IC50 means the concentration that gives 50% inhibition. Regarding `CCCCCCCCCCCCCCCCOCC(COP(=O)([O-])OCC[N+](C)(C)C)CC1CO1` (centres unmarked) [4-Hydroxy-N,N,N-trimethyl-7-(oxiranylmethyl)-3,5,9-trioxa-4-phosphapentacosan-1-aminium, hydroxide, inner salt, 4-oxide], the inhibition at 25 µg/mL at porcine pancreatic PLA2 [1] (subs. con. 2, read-out: % Inh.) was 85%. The inhibition at 10 µg/mL is 71% on porcine pancreatic PLA2 [2] (dose 10 μ/ml, read-out: % Inh.) and 74% at porcine pancreatic PLA2 [2] (setting [4]). Further, the inhibition at 20 µg/mL at porcine pancreatic PLA2 [2] (dose 20 μ/ml, read-out: % Inh.) was 88%. Besides, the IC50 on porcine pancreatic PLA2 [2] is 4.6 µM.

Take `CCCCCCCCCCCCCCCCOCC(COP(=O)([O-])OCC[N+](C)(C)C)CS(=O)(=O)CCCCCCCCCCCCCCCC` (centres unmarked) [7-[(Hexadecylsulfonyl)methyl]-4-hydroxy-N,N,N-trimethyl-3,5,9-trioxa-4-phosphapentacosan-1-aminium, hydroxide, inner salt, 4-oxide]: the inhibition at 25 µg/mL on porcine pancreatic PLA2 [1] (subs. con. 2, read-out: % Inh.) came out at 80%; on porcine pancreatic PLA2 [1] (subs. con. 2, read-out: % Inh. Avg.), 72%; on porcine pancreatic PLA2 [3] (setting [5]) it was 19%. In addition, the inhibition at 10 µg/mL at porcine pancreatic PLA2 [2] (dose 10 μ/ml, read-out: % Inh.) worked out at 9%; at porcine pancreatic PLA2 [2] (setting [4]), 57%. The inhibition at 20 µg/mL on porcine pancreatic PLA2 [2] (dose 20 μ/ml, read-out: % Inh.) worked out at 82%. Further, the IC50 at porcine pancreatic PLA2 [2] is 2.99 µM.

In the case of `CCCCCCCCCCCCCCCCOCC(COP(=O)([O-])OCC[N+](C)(C)C)OC(=O)CBr` (centres unmarked) [3,5,9-Trioxa-4-phosphapentacosan-1-aminium, 7-[(bromoacetyl)oxy]-4-hydroxy-N,N,N-trimethyl-, hydroxide, inner salt, 4-oxide], the inhibition at 10 µg/mL was 52% on porcine pancreatic PLA2 [1] (subs. con. 2, read-out: % Inh.); 35% on porcine pancreatic PLA2 [3] (setting [5]); 32% on porcine pancreatic PLA2 [3] (setting [6]). Further, the inhibition at 20 µg/mL at porcine pancreatic PLA2 [1] (subs. con. 2, read-out: % Inh.) was 85%. For the same compound, the IC50 against porcine pancreatic PLA2 [1] is 8.13 µM; at porcine pancreatic PLA2 [3] (subs. con. 10, read-out: IC50 Avg. (converted)) it was 83 µM. Further, the inhibition at 25 µg/mL was 78% at porcine pancreatic PLA2 [3] (setting [5]) and 50% at porcine pancreatic PLA2 [3] (setting [6]).

`CCCCCCCCCCCCCCCCOCC(COP(=O)([O-])OCC[N+](C)(C)C)OC(=O)CCl` (centres unmarked) [7-[(Chloroacetyl)oxy]-4-hydroxy-N,N,N-trimethyl-3,5,9-trioxa-4-phosphapentacosan-1-aminium, hydroxide, inner salt, 4-oxide]: the inhibition at 10 µg/mL at porcine pancreatic PLA2 [1] (subs. con. 2, read-out: % Inh.) is 46%; on porcine pancreatic PLA2 [3] (setting [5]) it was 27%. Moreover, the inhibition at 20 µg/mL at porcine pancreatic PLA2 [1] (subs. con. 2, read-out: % Inh.) was determined as 72%. At porcine pancreatic PLA2 [1], this compound showed an IC50 of 17.4 µM. Moreover, on porcine pancreatic PLA2 [3] (setting [6]), the inhibition at 25 µg/mL is 3%.

For `CCCCCCCCCCCCCCCCOCC(COP(=O)([O-])OCC[N+](C)(C)C)OP(=O)(OC)OCCCCC` (single isomer, unassigned) [3,5,8,10-Tetraoxa-4,9-diphosphapentadecan-1-aminium, 7-[(hex] [3,5,8,10-Tetraoxa-4,9-diphosphapentadecan-1-aminium, 7-[(hexadecyloxy)methyl]-4-hydroxy-9-methoxy-N,N,N-trimethyl-, hydroxide, 4-(inner salt),4,9-dioxide, more polar isomer], the “% Inh.” value is listed as “STIM” on porcine pancreatic PLA2 [1], 82% at porcine pancreatic PLA2 [2] (dose 10 μ/ml) and 89% on porcine pancreatic PLA2 [2] (dose 20 μ/ml).

As to `C=C(CC(COCCCCCCCCCCCCCCCC)COP(=O)([O-])OCC[N+](C)(C)C)C(F)(F)CCCCCCCCCCCCCCCC` (centres unmarked) [3,5,9-Trioxa-4-phosphapentacosan-1-aminium, 7-(3,3-difluoro-2-methylenenonadecyl)-4-hydroxy-N,N,N-trimethyl-, hydroxide, inner salt, 4-oxide], the inhibition at 25 µg/mL at porcine pancreatic PLA2 [1] (subs. con. 2, read-out: % Inh.) came out at 80%; on porcine pancreatic PLA2 [3] (setting [5]) it was 11%. Moreover, the inhibition at 10 µg/mL at porcine pancreatic PLA2 [2] (dose 10 μ/ml, read-out: % Inh.) was determined as 38%. The inhibition at 20 µg/mL at porcine pancreatic PLA2 [2] (dose 20 μ/ml, read-out: % Inh.) came to 38%.

Turning to `CCCCCCCCCCCCCCCCC#CCC(COCCCCCCCCCCCCCCCC)COP(=O)([O-])OCC[N+](C)(C)C` (centres unmarked) [7-(2-Nonadecynyl)-4-hydroxy-N,N,N-trimethyl-3,5,9-trioxa-4-phosphapentacosan-1-aminium, hydroxide, inner salt, 4-oxide], the inhibition at 25 µg/mL at porcine pancreatic PLA2 [1] (subs. con. 2, read-out: % Inh.) is 65%; at porcine pancreatic PLA2 [3] (setting [5]), 16%. Also, the inhibition at 10 µg/mL on porcine pancreatic PLA2 [2] (dose 10 μ/ml, read-out: % Inh.) was determined as 57%. The inhibition at 20 µg/mL on porcine pancreatic PLA2 [2] (dose 20 μ/ml, read-out: % Inh.) stood at 60%. Moreover, at porcine pancreatic PLA2 [2], the IC50 was 6.73 µM.

Turning to `CCCCCOCC(COP(=O)([O-])OCC[N+](C)(C)C)OP(=O)(O)OCCCCC` (single isomer, unassigned; less polar) [3,5,8,10-Tetraoxa-4,9-diphosphapentadecan-1-aminium, 4,9-dihydroxy-N,N,N-trimethyl-7-[(pentyloxy)methyl]-, hydroxide, 4-(inner salt), 4,9-dioxide, less polar isomer], the “% Inh.” value on porcine pancreatic PLA2 [1] was “STIM”. On porcine pancreatic PLA2 [3] (setting [5]), the inhibition at 25 µg/mL amounted to 12%. For the same compound, the inhibition at 10 µg/mL at porcine pancreatic PLA2 [2] (dose 10 μ/ml, read-out: % Inh.) turned out to be 20%. The inhibition at 20 µg/mL on porcine pancreatic PLA2 [2] (dose 20 μ/ml, read-out: % Inh.) was found to be 17%.

As for `CCCCCOCC(COP(=O)([O-])OCC[N+](C)(C)C)OP(=O)(OC)OCCCCC` (single isomer, unassigned; more polar) [3,5,8,10-Tetraoxa-4,9 diphosphapentadecan-1-aminium, 4-hydroxy-9-methoxy-N,N,N-trimethyl-7-[(pentyloxy)methyl]-, hydroxide, inner salt, 4,9-dioxide, more polar isomer], the “% Inh.” value on porcine pancreatic PLA2 [1] was “STIM”. Besides, the inhibition at 25 µg/mL on porcine pancreatic PLA2 [3] (setting [5]) turned out to be 0%. Further, the inhibition at 10 µg/mL on porcine pancreatic PLA2 [2] (dose 10 μ/ml, read-out: % Inh.) is 5%. Also, the inhibition at 20 µg/mL at porcine pancreatic PLA2 [2] (dose 20 μ/ml, read-out: % Inh.) is 11%.

In the case of `CCCCCCCCCCCCCCCCOCC(COP(=O)([O-])OCC[N+](C)(C)C)CC(=O)C(F)(F)CCCCCCCCCCCCCCCC` (centres unmarked) [3,5,9-Trioxa-4-phosphapentacosan-1-aminium, 7-(3,3-difluoro-2-oxononadecyl)-4-hydroxy-N,N,N-trimethyl-, hydroxide, inner salt, 4-oxide], the inhibition at 10 µg/mL at porcine pancreatic PLA2 [1] (subs. con. 2, read-out: % Inh.) was determined as 88%; at porcine pancreatic PLA2 [3] (setting [5]), 0%; on porcine pancreatic PLA2 [2] (dose 10 μ/ml, read-out: % Inh.), 38%. Further, the inhibition at 20 µg/mL at porcine pancreatic PLA2 [1] (subs. con. 2, read-out: % Inh.) was 89%; on porcine pancreatic PLA2 [3] (dose 20 μ/ml, subs. con. 10) it was 9%; on porcine pancreatic PLA2 [2] (dose 20 μ/ml, read-out: % Inh.), 41%. The inhibition at 25 µg/mL at porcine pancreatic PLA2 [1] (subs. con. 2, read-out: % Inh.) was determined as 80%; on porcine pancreatic PLA2 [3] (setting [5]), 8%.

For `CCCCCCCCCCCCCCCCOCC(O)(COP(=O)([O-])OCC[N+](C)(C)C)CC(N)CC` (centres unmarked) [7-(2-Aminobutyl)-4,7-dihydroxy-N,N,N-trimethyl-3,5,9-trioxa-4-phosphapentacosan-1-aminium, hydroxide, inner salt, 4-oxide], the inhibition at 10 µg/mL at porcine pancreatic PLA2 [1] (subs. con. 2, read-out: % Inh.) was 25%; at porcine pancreatic PLA2 [2] (dose 10 μ/ml, read-out: % Inh.), 89%. Moreover, the inhibition at 20 µg/mL at porcine pancreatic PLA2 [1] (subs. con. 2, read-out: % Inh.) came to 61%; on porcine pancreatic PLA2 [2] (dose 20 μ/ml, read-out: % Inh.), 94%. Besides, the IC50 against porcine pancreatic PLA2 [1] was 34.7 µM; on porcine pancreatic PLA2 [2], 2.35 µM.
